Several values for one entry are separate records, joined by “and”; a condition that tells them apart may be missing. Identical values can stand only once.
Assays:
[1] = test system: KLHDC2, KLHDC3, KLHDC10, KLHDC1 E3 ligases; settings: ligand alone; Fig S5b, c
[2] = molecular target: BRD2 (Homo sapiens, UniProt P25440); experiment: Western blot of BRD2 levels after cellular dosing
[3] = molecular target: BRD3 (Homo sapiens, UniProt Q15059); experiment: Western blot of BRD3 levels after cellular dosing
BRD3, sequence (Q15059 whole entry): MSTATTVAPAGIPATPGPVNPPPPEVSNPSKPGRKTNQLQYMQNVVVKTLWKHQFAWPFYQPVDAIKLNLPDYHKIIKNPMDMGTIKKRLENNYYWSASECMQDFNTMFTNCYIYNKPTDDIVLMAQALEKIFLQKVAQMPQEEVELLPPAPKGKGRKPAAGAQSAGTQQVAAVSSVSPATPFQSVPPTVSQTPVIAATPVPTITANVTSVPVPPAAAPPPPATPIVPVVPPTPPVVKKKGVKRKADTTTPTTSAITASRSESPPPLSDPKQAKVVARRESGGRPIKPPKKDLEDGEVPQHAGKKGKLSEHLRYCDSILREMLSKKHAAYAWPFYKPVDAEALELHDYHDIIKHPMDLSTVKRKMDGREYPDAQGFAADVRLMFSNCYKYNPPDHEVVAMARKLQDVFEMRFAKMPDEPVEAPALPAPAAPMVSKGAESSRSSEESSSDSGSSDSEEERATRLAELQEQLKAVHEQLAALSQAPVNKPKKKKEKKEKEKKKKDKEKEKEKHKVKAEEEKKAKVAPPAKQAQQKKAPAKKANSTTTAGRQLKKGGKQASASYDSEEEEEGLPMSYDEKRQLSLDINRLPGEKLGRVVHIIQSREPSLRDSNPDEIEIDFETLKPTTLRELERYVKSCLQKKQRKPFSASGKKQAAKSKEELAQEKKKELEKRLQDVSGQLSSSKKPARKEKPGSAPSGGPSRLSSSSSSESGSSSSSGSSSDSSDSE

[4] = test system: BRD proteins in U2OS KO/rescue lysate; experiment: Degradation in non-denaturing lysates of U2OS KO/rescue cells; settings: non-denaturing U2OS KO/rescue lysate 4mg/ml, 10 µM, 30° C
[5] = test system: BD2 domain from BRD2, BRD3, or BRD4 / neddylated CRL2^KLHDC2; experiment: Pulse-chase PROTAC-dependent ubiquitylation of BRD BD2 domains by neddylated CRL2^KLHDC2; settings: neddylated CRL2^KLHDC2 not subject to autoinhibition; Fig 3e
[6] = Fig S6b, MDA-MB468 Cells, 10 uM

BRD2, sequence (P25440 whole entry): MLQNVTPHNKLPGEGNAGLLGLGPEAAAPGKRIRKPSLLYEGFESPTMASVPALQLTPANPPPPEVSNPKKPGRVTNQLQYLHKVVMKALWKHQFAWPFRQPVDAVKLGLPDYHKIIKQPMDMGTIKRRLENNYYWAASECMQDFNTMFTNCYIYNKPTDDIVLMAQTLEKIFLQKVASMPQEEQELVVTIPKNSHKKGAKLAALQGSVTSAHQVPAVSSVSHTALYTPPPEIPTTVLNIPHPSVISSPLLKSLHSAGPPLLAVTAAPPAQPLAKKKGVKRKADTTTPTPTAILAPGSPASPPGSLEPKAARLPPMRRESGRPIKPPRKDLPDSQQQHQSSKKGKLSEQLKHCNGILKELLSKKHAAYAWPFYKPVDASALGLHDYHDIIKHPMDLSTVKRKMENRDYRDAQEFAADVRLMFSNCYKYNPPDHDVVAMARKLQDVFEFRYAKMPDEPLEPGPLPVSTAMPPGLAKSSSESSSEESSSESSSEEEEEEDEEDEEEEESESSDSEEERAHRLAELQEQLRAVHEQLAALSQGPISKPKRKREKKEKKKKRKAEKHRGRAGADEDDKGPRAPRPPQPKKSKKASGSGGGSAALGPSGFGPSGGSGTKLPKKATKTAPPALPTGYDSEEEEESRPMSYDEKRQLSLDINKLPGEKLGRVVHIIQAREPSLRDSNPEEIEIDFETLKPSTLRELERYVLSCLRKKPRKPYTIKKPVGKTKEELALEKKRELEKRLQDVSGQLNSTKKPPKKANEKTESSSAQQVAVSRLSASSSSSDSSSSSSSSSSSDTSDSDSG

## Cc1sc2c(c1C)C(c1ccc(Cl)cc1)=N[C@@H](CC(=O)N1CCN(CCOc3cccc4ccc(-c5nc(CC(=O)NCC(=O)O)cs5)cc34)CC1)c1nnc(C)n1-2 [SJ46421]
[1]
  inhibition of substrate ubiquitylation by Kelch family E3 ligases other than KLHDC2: largely inactive
[2]; Fig 6b, KO/Rescue, 5 uM
  BRD2 level, Western blot quantification (DMSO = 100): 112.267 and 101.949
[2]; Fig 6b, U2OS, 5 uM
  BRD2 level, Western blot quantification (DMSO = 100): 136.72 and 118.225
[2]; Fig S6a, 293T cells, 2.5 uM
  BRD2 level, Western blot quantification (DMSO = 100): 72.5135 and 88.7213
[2]; Fig S6a, 293T cells, 5 uM
  BRD2 level, Western blot quantification (DMSO = 100): 75.5009 and 85.1412
[2]; [6]
  BRD2 level, Western blot quantification (DMSO = 100): 62.2331 and 83.5917
[3]; Fig 6b, KO/Rescue, 5 uM
  BRD3 level, Western blot quantification (DMSO = 100): 107.446 and 99.4453
[3]; Fig 6b, U2OS, 5 uM
  BRD3 level, Western blot quantification (DMSO = 100): 111.974 and 117.271
[3]; Fig S6a, 293T cells, 2.5 uM
  BRD3 level, Western blot quantification (DMSO = 100): 78.3969 and 86.4266
[3]; Fig S6a, 293T cells, 5 uM
  BRD3 level, Western blot quantification (DMSO = 100): 73.4789 and 84.2355
[3]; [6]
  BRD3 level, Western blot quantification (DMSO = 100): 61.0904 and 82.4759
[3]; wild-type U2OS, 24 h dose, Fig 6b
  BRD degradation activity in U2OS cells: inactive
[4]
  degrader dependent decrease in BRD protein levels in lysate: did not observe a degrader dependent decrease
[5]
  polyubiquitylation of the BD2 domain from BRD2, BRD3, or BRD4: able to promote polyubiquitylation

— paper PMC11470957, “Principles of paralog-specific targeted protein degradation engaging the C-degron E3 KLHDC2” (Nature Communications, 2024)
